Data as given in US6380134B1, “N-pyridyl herbicide compounds” (Syngenta Crop Protection, Inc., priority 1998, dated 2002).

Columns and labels:
Assay type in all cases: in vivo
Design in all cases: key: 1=complete damage; 9=no effect; Score figures of 1 to 4 (in particular 1 to 3) signify a good to very good herbicidal action
[1] = test system: Ipomoea; experiment: Herbicidal action before plant emergence (pre-emergence action); conditions: 2000 g a.i./ha sprayed immediately after sowing; evaluated after 3 weeks; nine-level key (1=complete damage, 9=no effect)
Excerpt: (§1) Monocotyledonous and dicotyledonous test plants are sown in standard soil in plastic pots. Immediately after sowing, the test substances are sprayed on as aqueous suspensions (prepared from a 25% strength wettable powder (Example F3, b) in accordance with WO 97/34485) or as emulsions (prepared from a 25% strength emulsion concentrate (Example F1, c) in accordance with WO 97/34485), corresponding to a dosage of 2 kg of a.i./ha (500 l of water/ha). The test plants are subsequently grown in the greenhouse under optimal conditions. After a test period of 3 weeks, the experiment is evaluated using a nine-level key (1=complete damage, 9=no effect). Score figures of 1 to 4 (in particular 1 to 3) signify a good to very good herbicidal action.
(§2) Test plants: Lolium, Setaria, Sinapis, Solanum, Stellaria, Ipomea.

[2] = test system: Lolium; experiment: as above; conditions: 2000 g a.i./ha sprayed immediately after sowing; evaluated after 3 weeks; nine-level key (1=complete damage, 9=no effect)
Excerpt: as §1, §2

[3] = test system: Setaria; experiment: as above; conditions: 2000 g a.i./ha sprayed immediately after sowing; evaluated after 3 weeks; nine-level key (1=complete damage, 9=no effect)
Excerpt: as §1, §2

[4] = test system: Sinapis; experiment: as above; conditions: 2000 g a.i./ha sprayed immediately after sowing; evaluated after 3 weeks; nine-level key (1=complete damage, 9=no effect)
Excerpt: as §1, §2

[5] = test system: Solanum; experiment: as above; conditions: 2000 g a.i./ha sprayed immediately after sowing; evaluated after 3 weeks; nine-level key (1=complete damage, 9=no effect)
Excerpt: as §1, §2

[6] = test system: Stellaria; experiment: as above; conditions: 2000 g a.i./ha sprayed immediately after sowing; evaluated after 3 weeks; nine-level key (1=complete damage, 9=no effect)
Excerpt: as §1, §2

[7] = test system: Ipomoea; experiment: Post-emergence herbicidal action; conditions: dose 2000 g a.i./ha; sprayed at 4- to 6-leaf stage; evaluated after approximately 18 days; nine-level key (1=complete damage, 9=no effect)
Procedure: (§3) Monocotyledonous and dicotyledonous test plants are grown in the greenhouse in plastic pots containing standard soil and, in the 4- to 6-leaf stage, sprayed with an aqueous suspension of the test substances of the formula I, prepared from a 25% strength wettable powder (Example F3, b) in accordance with WO 97/34485) or with an emulsion of the test substances of the formula I, prepared from a 25% strength emulsion concentrate (Example F1, c) in accordance with WO 97/34485), corresponding to a dosage of 2 kg/ a.i./ha (500 l of water/ha). The test plants are subsequently grown on in the greenhouse under optimal conditions. After a test period of approximately 18 days, the experiment is evaluated using a nine-level key (1=complete damage, 9=no effect). Score figures of 1 to 4 (in particular 1 to 3) signify a good to very good herbicidal action.
as §2

[8] = test system: Lolium; experiment: Post-emergence herbicidal action; conditions: dose 2000 g a.i./ha; sprayed at 4- to 6-leaf stage; evaluated after approximately 18 days; nine-level key (1=complete damage, 9=no effect)
Procedure: as §3, §2

[9] = test system: Setaria; experiment: Post-emergence herbicidal action; conditions: dose 2000 g a.i./ha; sprayed at 4- to 6-leaf stage; evaluated after approximately 18 days; nine-level key (1=complete damage, 9=no effect)
Procedure: as §3, §2

[10] = test system: Sinapis; experiment: Post-emergence herbicidal action; conditions: dose 2000 g a.i./ha; sprayed at 4- to 6-leaf stage; evaluated after approximately 18 days; nine-level key (1=complete damage, 9=no effect)
Procedure: as §3, §2

[11] = test system: Solanum; experiment: Post-emergence herbicidal action; conditions: dose 2000 g a.i./ha; sprayed at 4- to 6-leaf stage; evaluated after approximately 18 days; nine-level key (1=complete damage, 9=no effect)
Procedure: as §3, §2

[12] = test system: Stellaria; experiment: Post-emergence herbicidal action; conditions: dose 2000 g a.i./ha; sprayed at 4- to 6-leaf stage; evaluated after approximately 18 days; nine-level key (1=complete damage, 9=no effect)
Procedure: as §3, §2

SMILES | Pre-emergence action, score, test plant Ipomoea [1] | Pre-emergence action, score, test plant Lolium [2] | Pre-emergence action, score, test plant Setaria [3] | Pre-emergence action, score, test plant Sinapis [4] | Pre-emergence action, score, test plant Solanum [5] | Pre-emergence action, score, test plant Stellaria [6] | Post-emergence action, score, Ipomoea [7] | Post-emergence action, score, Lolium [8] | Post-emergence action, score, Setaria [9] | Post-emergence action, score, Sinapis [10] | Post-emergence action, score, Solanum [11] | Post-emergence action, score, Stellaria [12]
COC(=O)C(C)Oc1nc(-n2c(=O)cc(C(F)(F)F)n(C)c2=O)c(F)cc1Cl (centres unmarked) [1.048] | 1 | 1 | 1 | 1 | 1 | 1 | 1 | 1 | 1 | 1 | 1 | 1
C=CCOC(=O)C(C)(C)Oc1nc(-n2c(=O)cc(C(F)(F)F)n(C)c2=O)c(F)cc1Cl [1.402] | 4 | 1 | 1 | 1 | 1 | 1 | 1 | 1 | 1 | 1 | 1 | 1
CCOc1cc(F)c(-n2c(=O)cc(C(F)(F)F)n(C)c2=O)nc1Cl [500.004] |  |  |  |  |  |  | 3 |  |  | 2 | 1 | 
Cn1c(C(F)(F)F)cc(=O)n(-c2nc(OCOCc3ccccc3)c(Cl)cc2F)c1=O [1.025] | 1 | 3 | 1 | 1 | 1 | 3 | 1 | 1 | 3 | 1 | 1 | 1
COC(=O)C(C)Oc1cc(F)c(-n2c(=O)cc(C(F)(F)F)n(C)c2=O)nc1Cl (centres unmarked) [500.029] |  |  | 4 |  | 1 |  | 1 |  |  | 1 | 1 | 
Cn1c(C(F)(F)F)cc(=O)n(-c2nc(OCC(N)=O)c(Cl)cc2F)c1=O [1.366] | 1 | 3 | 1 | 1 | 1 | 3 | 1 | 1 | 1 | 1 | 1 | 1
Cn1c(C(F)(F)F)cc(=O)n(-c2nc(OCC(F)(F)F)c(Cl)cc2F)c1=O [1.365] | 1 | 1 | 1 | 1 | 1 | 1 | 1 | 1 | 1 | 1 | 1 | 1
C=CCOc1nc(-n2c(=O)cc(C(F)(F)F)n(C)c2=O)c(F)cc1Cl [1.020] | 1 | 1 | 1 | 1 | 1 | 1 | 1 | 1 | 1 | 1 | 1 | 1
Cn1c(C(F)(F)F)cc(=O)n(-c2nc(OCc3ccccc3)c(Cl)cc2F)c1=O [1.026] | 1 | 1 | 1 | 1 | 1 | 3 | 1 | 3 | 3 | 1 | 1 | 3
CSC(=O)COc1cc(F)c(-n2c(=O)cc(C(F)(F)F)n(C)c2=O)nc1Cl [500.033] |  |  | 2 |  | 1 |  | 1 |  |  | 1 | 1 | 
COC(=O)C(Oc1cc(Cl)c(-n2c(=O)cc(C(F)(F)F)n(C)c2=O)nc1Cl)c1ccccc1 (centres unmarked) [500.144] |  |  | 2 |  | 1 |  |  |  |  |  |  | 
C=CCOc1cc(F)c(-n2c(=O)cc(C(F)(F)F)n(C)c2=O)nc1Cl [500.007] |  |  | 4 |  | 1 |  |  |  |  |  |  | 
